Source: ChEMBL document CHEMBL2363022, “Malaria Box Schistosomiasis Screening Data” (2013)

Key:
Schistosoma mansoni [1] = assay: (§1) MMV: Motility assay. Percent change (relative to DMSO controls) @ 5 uM of movement of 4-5 Schistosoma mansoni adult males after 24 h as measured by the Consensus Voting Luminance Difference algorithm available on WormAssay (PMID:22303493). Occasional incongruence ocurrs between the motility scores and the visually adjudicated 'toxicity scores'. In these cases the 'toxicity score' should be prioritized. Only those Malaria box 'Drug-like' cpds yielding the most severe phenotypes vs. somules were tested. Caffrey group UCSF.; format: functional
Schistosoma mansoni [2] = format: functional; design: scale not given here
Schistosoma mansoni [3] = format: functional; design: scale not given here; remark: listed apart in the source
Schistosoma mansoni [4] = assay: MMV: Toxicity @ 5 uM to 4-5 Schistosoma mansoni adult males after 48 h on a scale of 0 (none) - 4 (most). Includes short descriptors of effects as judged visually (PMID:19597541). Only those Malaria box 'drug-like' cpds yielding the most severe phenotypes vs. somules were tested. Caffrey group UCSF.; format: functional
Schistosoma mansoni [5] = format: functional; design: scale not given here; remark: listed apart in the source
Schistosoma mansoni [6] = assay: MMV: Toxicity @ 5 uM to 4-5 Schistosoma mansoni adult males after 24 h on a scale of 0 (none) - 4 (most). Includes short descriptors of effects as judged visually (PMID:19597541). Only those Malaria box 'drug-like' cpds yielding the most severe phenotypes vs. somules were tested. Caffrey group UCSF.; format: functional
Schistosoma mansoni [7] = assay: as §1, with “48” for “24”; format: functional
Schistosoma mansoni [8] = assay: as §1, with “72” for “24”; format: functional
Schistosoma mansoni [9] = assay: MMV: Toxicity @ 5 uM to 4-5 Schistosoma mansoni adult males after 72 h on a scale of 0 (none) - 4 (most). Includes short descriptors of effects as judged visually (PMID:19597541). Only those Malaria box 'drug-like' cpds yielding the most severe phenotypes vs. somules were tested. Caffrey group UCSF.; format: functional
Schistosoma mansoni [10] = system: Schistosoma mansoni

| SMILES | Motility (Schistosoma mansoni [1]) | Toxicity (Schistosoma mansoni [2]) | Toxicity (Schistosoma mansoni [3]) | Toxicity (Schistosoma mansoni [4]) | Toxicity (Schistosoma mansoni [5]) | Toxicity (Schistosoma mansoni [6]) | Motility (Schistosoma mansoni [7]) | Motility (Schistosoma mansoni [8]) | Toxicity (Schistosoma mansoni [9]) | Toxicity (Schistosoma mansoni [10]) |
| --- | --- | --- | --- | --- | --- | --- | --- | --- | --- | --- |
| COc1ccc(-c2nc3cc(Cc4ccc5[nH]c(-c6ccc(OC)cc6)nc5c4)ccc3[nH]2)cc1 | 17.2 | 4 | 4 | 3 | 3 | 3 | 24.7 | 12.4 | 4 |  |
| Oc1ccccc1CN1CCC2(CCCN(Cc3ccccc3F)C2)C1 (configuration not stated) | 175.4 | 3 | 3 | 1 | 2 | 1 | 150.6 | overactive | 1 |  |
| CC(C)(C)c1ccc(C(=O)Nc2nc3ccccc3s2)cc1 | 58.5 | 0 | 0 | 0 | 2 | 0 | 113.8 | 118 | 0 |  |
| Cc1ccc(CN2CCC(C(=O)Nc3ccc(-c4cc5ccccc5[nH]4)cc3)CC2)o1 | 122.1 | 4 | 4 | 0 | 0 | 0 | 126.5 | No effect | 0 |  |
| O=C(O)C(=O)O.Oc1ccc(Br)cc1CN1CCN(Cc2cccc(F)c2)CC1 | 233 | 1 | 1 | 1 | 1 | 1 | 202.5 | Overactive | 1 |  |
| CCN(CC)CCCNc1nc(-c2ccc(Cl)cc2)nc2ccccc12 | 86.7 | 4 | 4 | 0 | 2 | 0 | 99.5 | 56 | 0 |  |
| Clc1ccc2c(N3CCCC3)ccnc2c1 | 163 | 0 | 2 | 0 | 1 | 0 | 131.1 | No effect | 0 |  |
| O=C(Nc1nc(-c2ccccn2)cs1)c1ccccc1Br | 69.2 | 2 | 4 | 0 | 2 | 0 | 80.4 | 88 | 0 |  |
| CCOc1cc(Cl)c(C(C)NC(=O)c2cccc(OC)c2)cc1OCC (configuration not stated) |  |  | 2 |  | 1 |  |  |  |  | No effect |
| CCN(CC)CCNc1ncnc2c1[nH]c1ccc(Br)cc12 | No effect | 4 | 4 | 0 | 4 | 0 | 119 | No effect | 0 |  |
| Cl.Clc1cc(Br)ccc1-c1ccc(CNCC2CCNCC2)o1 | 27.8 | 4 | 4 | 3 | 4 | 2 | 52.5 | On sides, dark | 2 |  |
| COc1ccc(Nc2nc(NCc3ccccc3)c3ccccc3n2)cc1 | 100 | 4 | 4 | 0 | 2 | 0 | 105.7 | No effect | 0 |  |
| CC(C)=CCN1CCC(C(=O)Nc2ccc(-c3nc4ccccc4[nH]3)cc2)CC1 | 139.1 | 1 | 1 | 0 | 1 | 0 | 93.7 | 119 | 0 |  |
| CCN(CC)CCn1c(=N)n(CC(O)c2ccc(Cl)c(Cl)c2)c2ccccc21.Cl (configuration not stated) | 68.1 | 4 | 4 | 1 | 3 | 0 | 7.4 | 66.9 | 0 |  |
| Cc1cc(C)c2nc(N3CCC(C(=O)NCCCN4CCC(N5CCCCC5)CC4)CC3)sc2c1 | 97.4 | 4 | 4 | 0 | 4 | 0 | 125.2 | 117 | 0 |  |
| COc1ccc(CNC2CCN(c3ccc(NC(=O)c4cccc(Cl)c4)cc3)CC2)cc1OC | 104.8 | 4 | 4 | 0 | 2 | 0 | 45.4 | 49 | 0 |  |
| CC(C)OCc1cc(CN2CCN(c3cccc(Cl)c3)CC2)c(O)c2ncccc12 | 27.4 | 3 | 4 | 2 | 2 | 2 | 55.2 | 59.8 | 2 |  |
| Cl.N=c1n(CCN2CCCCC2)c2ccccc2n1CC(O)c1cccc(Br)c1 (configuration not stated) | 92.2 | 2 | 4 | 0 | 2 | 0 | 74.8 | 114.5 | 0 |  |
| Cc1cc(N2CCCC2)nc(Nc2ccc(NC(=O)CCc3ccccc3)cc2)n1 | 28.9 | 4 | 4 | 3 | 0 | 2 | 104.8 | Slow | 1 |  |
| COCCNCC(O)Cn1c2ccc(Cl)cc2c2cc(Cl)ccc21 (configuration not stated) | 94 | 4 | 4 | 0 | 4 | 0 | 94 | No effect | 0 |  |
| Oc1c(CN2CCN(c3ccccc3F)CC2)cc(Br)c2cccnc12 | 231 | 4 | 4 | 4 | 0 | 3 | 54.2 | 54.8 | 4 |  |
| CC1CCN(Cc2ccc(NC(=O)c3cc4ccc5cccnc5c4[nH]3)cc2)CC1 | 138 | 4 | 4 | 0 | 0 | 0 | 97.2 | 110 | 0 |  |
| CCCCc1ccc(NS(=O)(=O)c2cc3c4c(c2)CCN4C(=O)CC3)cc1 | 109.4 | 0 | 0 | 0 | 2 | 0 | 170.6 | 80.4 | 0 |  |
| CNCCCNc1ccnc2cc(Cl)ccc12 | 113.2 | 2 | 2 | 0 | 2 | 0 | 116.2 | No effect | 0 |  |
| O=c1nc(C=Cc2ccc(Br)cc2)oc2ccccc12 | 132 | 2 | 2 | 0 | 2 | 0 | 98.7 | No effect | 0 |  |
| CC(C)(C)CC(C)(C)NCC(O)COc1ccc2c(c1)CCC2.Cl (configuration not stated) | 146 | 2 | 4 | 1 | 2 | 0 | 153 | overactive | 1 |  |
| COc1cc2c(cc1OC)C1=NNC(=O)C1=NC(C)(C)C2 | 140 | 4 | 4 | 0 | 0 | 0 | 120 | No effect | 0 |  |
